Assay [1] concerns the target T1, Runt-related transcription factor 1/Core-binding factor subunit beta (Homo sapiens, UniProt Q01196+Q13951). Nature of the assay: inhibitors of RUNX1 Runt–CBFb-SMMHC binding, biochemical, TR-FRET (AID 1438). It counts as protein assay.
The target in the next assay is T2, Bcl-2-like protein 10 (Homo sapiens, UniProt Q9HD36).
T2 sequence (Q9HD36 whole entry): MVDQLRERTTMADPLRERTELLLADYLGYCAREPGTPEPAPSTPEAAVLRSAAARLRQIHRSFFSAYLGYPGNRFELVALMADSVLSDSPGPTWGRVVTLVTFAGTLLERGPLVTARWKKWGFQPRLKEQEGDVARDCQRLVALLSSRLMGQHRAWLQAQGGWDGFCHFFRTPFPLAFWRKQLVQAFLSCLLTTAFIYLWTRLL
Nature of the assay: displacers of TR3 peptide from Bcl-B, primary screen, selectivity assay for Bfl-1 inhibitor project, biochemical, fluorescence polarization, FITC-TR3 peptide (AID 748).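 Note: fluorescence polarization from a fluorescein-labelled TR3 peptide binding purified Bcl-B.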 For orientation: In fluorescence polarisation assays a small probe gives low polarisation when free and higher when bound to something large.

Assay [2] has as its target T1, Runt-related transcription factor 1/Core-binding factor subunit beta. Description: inhibitors of RUNX1 Runt–CBFb-SMMHC binding, primary screen, biochemical, FRET, Cerulean-Runt, Venus-CBFb-SMMHC, uHTS (AID 1434).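 Note: partner is the CBFb-SMMHC leukemia fusion protein rather than wild-type CBFb.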 It counts as protein assay.
In assay [3] the target is Glutathione-S-transferase (Schistosoma japonicum, UniProt Q26513). Nature of the assay: biotin-GST/anti-GST TR-FRET signal inhibitors, dose response, artefact control for Vif-APOBEC3G degradation inhibitor project, biochemical (AID 1117362). It counts as functional. (In general: TR-FRET usually uses a lanthanide donor and a delayed reading to cut background.)
Assay [4] addresses T3, Mu-type opioid receptor (Homo sapiens, UniProt P35372). Description: MOR agonists by imaging, SAR follow-up, image-based (AID 2352). It counts as functional.
Assay [5] addresses T4, Kappa-type opioid receptor (Homo sapiens, UniProt P41145). Nature of the assay: kappa opioid receptor blockers, cell-based, luminescence, beta-arrestin, SAR follow-up (AID 2285). It counts as functional.
Assay [6] has as its target T4, Kappa-type opioid receptor. Nature of the assay: KOR agonist analogs, imaging readout, SAR follow-up, image-based (AID 2359). It counts as functional.
Assay [7] concerns the target T5, Delta-type opioid receptor (Homo sapiens, UniProt P41143). Nature of the assay: DOR agonists, SAR follow-up, image-based (AID 2370). It counts as functional.
The target of assay [8] is T4, Kappa-type opioid receptor. Description: KOR antagonists by imaging, SAR follow-up, image-based (AID 2348). It counts as functional.
Assay [9] addresses T3, Mu-type opioid receptor. Nature of the assay: MOR antagonists, SAR follow-up, image-based (AID 2420).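 Note: compounds added before stimulation of receptor with agonist DAMGO.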 It counts as functional.
Assay [10] concerns the target T5, Delta-type opioid receptor. Description: DOR antagonists, SAR follow-up, image-based (AID 2357). It counts as functional.
In assay [11] the target is T6, Tyrosine-protein phosphatase non-receptor type 22 (Homo sapiens, UniProt Q9Y2R2).
T6 sequence (Q9Y2R2 whole entry): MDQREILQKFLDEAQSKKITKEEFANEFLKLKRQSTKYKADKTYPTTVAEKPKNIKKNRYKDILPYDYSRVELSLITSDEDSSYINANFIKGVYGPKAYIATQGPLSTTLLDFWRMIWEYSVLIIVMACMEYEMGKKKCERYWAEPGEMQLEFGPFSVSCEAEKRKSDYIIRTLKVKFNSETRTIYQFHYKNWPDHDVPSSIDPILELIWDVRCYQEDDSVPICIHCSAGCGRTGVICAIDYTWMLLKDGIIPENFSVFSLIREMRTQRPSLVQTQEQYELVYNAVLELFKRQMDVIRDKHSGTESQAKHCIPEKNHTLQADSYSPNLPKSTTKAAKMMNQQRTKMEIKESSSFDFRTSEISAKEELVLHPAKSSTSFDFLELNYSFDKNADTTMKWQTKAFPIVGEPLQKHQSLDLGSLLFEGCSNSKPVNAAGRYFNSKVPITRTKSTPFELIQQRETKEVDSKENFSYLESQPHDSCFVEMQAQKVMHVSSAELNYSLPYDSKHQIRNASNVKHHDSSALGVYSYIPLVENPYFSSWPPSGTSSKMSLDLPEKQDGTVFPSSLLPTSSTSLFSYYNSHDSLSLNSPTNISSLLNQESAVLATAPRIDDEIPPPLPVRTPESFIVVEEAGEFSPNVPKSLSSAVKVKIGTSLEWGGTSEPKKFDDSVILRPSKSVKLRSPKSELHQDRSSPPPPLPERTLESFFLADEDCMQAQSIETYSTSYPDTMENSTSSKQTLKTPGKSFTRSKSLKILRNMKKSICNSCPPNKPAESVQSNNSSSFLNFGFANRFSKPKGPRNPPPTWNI
It counts as functional.

For the next assay, the target named is Troponin, cardiac muscle (Homo sapiens, UniProt P19429+P45379+P63316). Description: Fluorescence-based biochemical high throughput dose response assay for activators of the calcium sensitivity of cardiac Regulated Thin Filaments (RTF). [Related pubchem assays (depositor defined):AID493008, AID493018, AID504382, AID504383]. It counts as protein-complex assay.

Assay [12] deals with T7, Tyrosine-protein phosphatase non-receptor type 7 (Homo sapiens, UniProt P35236).
T7 sequence (P35236 whole entry): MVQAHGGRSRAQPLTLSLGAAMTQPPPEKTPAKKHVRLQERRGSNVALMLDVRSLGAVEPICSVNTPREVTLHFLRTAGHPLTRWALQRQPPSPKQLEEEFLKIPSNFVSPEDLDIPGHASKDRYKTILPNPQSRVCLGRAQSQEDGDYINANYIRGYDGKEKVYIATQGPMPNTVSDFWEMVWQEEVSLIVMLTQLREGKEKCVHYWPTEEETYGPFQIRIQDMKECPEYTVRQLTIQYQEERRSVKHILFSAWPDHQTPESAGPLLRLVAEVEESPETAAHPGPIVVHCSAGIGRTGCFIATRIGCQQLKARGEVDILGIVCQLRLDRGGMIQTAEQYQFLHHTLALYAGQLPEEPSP
It counts as functional.

Assay [13] deals with T6, Tyrosine-protein phosphatase non-receptor type 22. It counts as functional. This is another data set of the same source.
Assay [14] addresses T8, Endoribonuclease toxin MazF (Escherichia coli K-12, UniProt P0AE70).
T8 sequence (P0AE70 whole entry): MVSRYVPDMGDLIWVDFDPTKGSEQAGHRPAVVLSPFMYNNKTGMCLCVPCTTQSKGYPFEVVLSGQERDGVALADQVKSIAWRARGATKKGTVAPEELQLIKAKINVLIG
Nature of the assay: MazF toxin RNase activators, dose response, biochemical, fluorescence, single-stranded RNA substrate, uHTS hits (AID 588481). It counts as functional.

The target in assay [15] is T8, Endoribonuclease toxin MazF. Nature of the assay: fluorescent RNA oligo signal without MazF, dose response, counter-screen for MazEF activator project, biochemical, fluorescence, single-stranded RNase substrate (AID 588502). It counts as functional. (A counterscreen serves to expose hits that act by an unwanted route or on another target.)
Assay [16] has as its target T9, Cannabinoid receptor 2 (Homo sapiens, UniProt P34972). Nature of the assay: SAR analysis of antagonists of the Cannabinoid Receptor 2 using an Image-Based Assay - Set 2. [Related pubchem assays (depositor defined):AID1961, AID1965]. It counts as functional.
For assay [17], the target named is T10, G-protein coupled receptor 55 (Homo sapiens, UniProt Q9Y2T6). Description: SAR analysis of selective Agonists of GPR55 using an Image-Based Assay. [Related pubchem assays (depositor defined):AID1961, AID1965]. It counts as functional.
In assay [18] the target is T9, Cannabinoid receptor 2. Description: SAR analysis of agonists of the Cannabinoid Receptor 2 using an Image-Based Assay - Set 2. [Related pubchem assays (depositor defined):AID1961, AID1965]. It counts as functional.
The target of another assay is Cannabinoid receptor 1 (Homo sapiens, UniProt P21554). Description: SAR analysis of antagonists of the Cannabinoid Receptor 1 using an Image-Based Assay. [Related pubchem assays (depositor defined):AID1961, AID1965]. It counts as functional.
Assay [19] deals with T10, G-protein coupled receptor 55. Nature of the assay: GPR55 agonists via beta-arrestin recruitment, primary screen, imaging, U2OS cells, beta-arrestin-GFP redistribution (AID 1961). It counts as functional.
Assay [20] addresses Induced myeloid leukemia cell differentiation protein Mcl-1 (Homo sapiens, UniProt Q07820). It counts as functional.
Assay [21] concerns the target Eukaryotic translation initiation factor 4E (Mus musculus, UniProt P63073). Description: eIF4E–eIF4G protein interaction inhibitors, dose response, biochemical, TR-FRET (AID 855).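 Note: potency for disrupting eIF4E binding to eIF4GI seen as loss of FRET.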 It counts as functional.
Assay [22] concerns the target T11, Dual specificity protein phosphatase 6 (Rattus norvegicus, UniProt Q64346).
T11 sequence (Q64346 whole entry): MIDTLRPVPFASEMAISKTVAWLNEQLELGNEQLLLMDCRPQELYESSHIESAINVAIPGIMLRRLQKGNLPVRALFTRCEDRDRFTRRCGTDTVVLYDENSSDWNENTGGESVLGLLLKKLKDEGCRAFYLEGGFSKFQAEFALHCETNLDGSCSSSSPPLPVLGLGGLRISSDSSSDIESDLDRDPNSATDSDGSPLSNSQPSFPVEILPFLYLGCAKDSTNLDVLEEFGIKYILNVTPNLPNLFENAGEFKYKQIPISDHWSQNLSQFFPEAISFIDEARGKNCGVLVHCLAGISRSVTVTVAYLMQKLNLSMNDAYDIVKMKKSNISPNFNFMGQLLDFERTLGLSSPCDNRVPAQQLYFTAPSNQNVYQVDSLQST
Nature of the assay: MKP-3 phosphatase inhibitors, primary screen, biochemical, rat enzyme, in vitro (AID 425).

In assay [23] the target is T12, Dual specificity protein phosphatase 3 (Homo sapiens, UniProt P51452). Nature of the assay: VHR1 phosphatase inhibitors, biochemical (AID 1878).
Assay [24] has as its target T12, Dual specificity protein phosphatase 3. Description: VHR1 phosphatase inhibitors, primary screen, biochemical, absorbance, uHTS (AID 1654).
The target of assay [25] is T13, Voltage-gated N-type calcium channel alpha-1B subunit/Amyloid beta A4 precursor protein-binding family A member 1 (Homo sapiens, UniProt Q00975+Q02410). It counts as protein assay.
Assay [26] deals with T13, Voltage-gated N-type calcium channel alpha-1B subunit/Amyloid beta A4 precursor protein-binding family A member 1. It counts as protein assay. This is another data set of the same source.
Assay [27] addresses Signal transducer and activator of transcription 3 (Homo sapiens, UniProt P40763). Description: STAT3 inhibitors, late-stage profile, late-stage follow-up, cell-based, STAT1 panel, qPCR, cytotoxicity, panel member STAT3 Inhibition (AID 2078).
In assay [28] the target is Signal transducer and activator of transcription 1-alpha/beta (Homo sapiens, UniProt P42224). Nature of the assay: STAT3 inhibitors, late-stage profile, late-stage follow-up, cell-based, STAT1 panel, qPCR, cytotoxicity, panel member STAT1 Inhibition (AID 2078).
The target in assay [29] is T4, Kappa-type opioid receptor. Description: SAR analysis of small molecule agonists of the kappa opioid receptor via a luminescent beta-arrestin assay - Set 3. [Related pubchem assays (depositor defined):AID1777, AID1785, AID1786, AID1966, AID2133, AID2136, AID2284, AID2500]. It counts as functional.

The record followed here is ChEMBL document CHEMBL1201862, “PubChem BioAssay data set” (2004).

SMILES strings stand for the structures. The source made the active and inactive calls.

What is called IC50 is the point on the concentration scale where inhibition reaches its midpoint. Take `CN1CCc2c(sc3c2c(NCc2ccco2)nc2nnnn23)C1`: the IC50 is 56.3 µM (inactive) in assay [1], 38.8 µM (active) on Bcl-2-like protein 10, 80 µM (inactive) in [2] and 31.1 µM (active) in [3].
The EC50 is the midpoint of the concentration-response curve. For the compound `Cc1ccc(C)c(N2CCN(CCCNC(=O)CCn3c(=O)c4cccn4c4cccnc43)CC2)c1`, the EC50 (on Mu-type opioid receptor [4]; in assay [6]; in assay [7]) was > 32 µM (inactive) each time. For the same compound, the IC50 in assay [5] was > 10 µM (inactive); in assay [8], > 32 µM (inactive); at Mu-type opioid receptor [9] it was > 32 µM (inactive); in [10], > 32 µM (inactive).
As for `Cc1ccc(N=Nc2c(O)n(CN3CCOCC3)c3ccccc23)cc1`, the IC50 in assay [11], in assay [12] and in [13] was > 79.4 µM (inactive) each time. Further, the EC50 at Troponin, cardiac muscle is > 71.5 µM (inactive); in [14], 39.4 µM (inactive); in [15], 50.5 µM (inactive).
As for `CN(C)S(=O)(=O)c1ccc(N2CCCC2)c(C(=O)N2CCN(c3ccc([N+](=O)[O-])cc3)CC2)c1`, the IC50 on Cannabinoid receptor 2 [16] and at Cannabinoid receptor 1 was > 32 µM (inactive) in each case. Also, the concentration giving a half-maximal response (EC50) in assay [17] is 0.66 µM (active); on Cannabinoid receptor 2 [18], > 32 µM (inactive); in assay [19], 0.689 µM (active).
For `COc1cc(/C=C2\SC(=O)N(c3ccc(Cl)cc3)C2=O)cc([N+](=O)[O-])c1O`, the IC50 in assay [20] was 3.07 µM (active); in assay [21] it was 50 µM (inactive); in assay [22] it was > 158 µM (not active); in assay [23], 2.3 µM (active); in [24], 2.92 µM (active); in [25], > 56.8 µM (not active). Also, the IC50 in assay [26] is > 50 µM (inactive).
In the case of `O=C(c1ccccc1)C1CCN(c2ncnc3sc4c(c23)CCCC4)CC1`, the values for the IC50 in assay [27] and in assay [28] were > 18.6 µM (inactive) and > 55.7 µM (inactive), respectively.
On to `Cc1ccc2nc(O)c(CN(Cc3ccccc3)C(=O)c3ccccn3)cc2c1`, for which the EC50 in assay [29] is 9.25 µM (active).
